Where two headings read alike, the source gives them in different places. Numbered stars: 1 amine (or outer) side, 2 acyl side, 3 side chain; on linkers, the order of the positions; unused ones are H or OH. Square brackets hold non-standard residues; d marks the D form. Peptide text beside a SMILES is read from it. Ile(ψThz) = CC[C@H](C)[C@H](N[*:1])c1nc(C(=O)[*:2])cs1
Key:
H-D exchange NMR = format: physicochemical; conditions: 20% D2O and 80% DMSO-d6
Excerpt: To further confirm the solvent accessibility of the amides we performed H-D exchange experiments using SA-A1, SA-B1, and SA-B3 by adding 20% D2O to samples dissolved in DMSO-d 6 (Table and Figures S10–S12). The rate of exchange of the amide proton for deuterium is an indicator of solvent accessibility. […] In line with their observations, the Ala-1 NH exchanges rather fast in SA-A1, which is in stark contrast to Ala-1 in SA-B1 and SA-B3 where it is fully stable. […] The Ile-4 amide is always strongly shielded which is in line with it being involved in a stable hydrogen bond with the Ala-1 carbonyl group as for SA-A1. […] Unfortunately, for SA-B3 this peak overlapped with aromatic peaks prohibiting quantification.
The samples were dissolved in DMSO-d 6 and 20% D2O was added. Immediately after ^1H NMR data was collected at 0, 10, 20, 30, and 240 min. The peak area was normalized to a peak of constant height.

U2OS cells = experiment: Cell painting assay (induction, cell count); format: cell-based
Protocol: Therefore, we subjected our set of compounds to the cell painting assay that is agnostic toward specific biological targets. In our cell-painting setup, the compounds were tested at different concentrations (10, 30, and 50 μM) in U2OS cells followed by treatment with dyes for mitochondria (Mito Tracker Deep Red), endoplasmic reticulum (concanavalin-Alexa488 conjugate), actin, (Phalloidin-Alexa594 conjugate), DNA (Hoechst 33342), nucleoli and cytoplasmic RNA (SYTO 14), and Golgi and plasma membranes (WGA-Alexa594 conjugate). Next, the cells were imaged in various channels at 9 sites per well and a total of 579 morphological parameters were extracted. An induction score was calculated from this analysis, which represents the number of parameters for which the change was significant in comparison to the DMSO control.
The described assay follows closely the method described by Bray et al.
Initially, 5 μL U2OS medium were added to each well of a 384-well plate (Revvity PhenoPlate 384). Subsequently, U2OS cell were seeded with a density of 1600 cells per well in 20 μL medium. The plate was incubated for 10 min at ambient temperature, followed by an additional 4 h incubation (37 °C, 5% CO2). […] Incubation with compound was performed for 20 h (37 °C, 5% CO2). Subsequently, mitochondria were stained with Mito Tracker Deep Red (Thermo Fisher Scientific, Cat. No. M22426). The Mito Tracker Deep Red stock solution (1 mM) was diluted to a final concentration of 100 nM in prewarmed medium. The medium was removed from the plate leaving 10 μL residual volume and 25 μL of the Mito Tracker solution were added to each well. The plate was incubated for 30 min in darkness (37 °C, 5% CO2). To fix the cells 7 μL of 18.5% formaldehyde in PBS were added, resulting in a final formaldehyde concentration of […]. Subsequently, the plate was incubated for another 20 min in darkness (RT) and washed three times with 70 μL of PBS. (Agilent Washer Elx405). Cells were permeabilized by addition of 25 μL 0.1% Triton X-100 to each well, followed by 15 min incubation (RT) in darkness. The cells were washed three times with PBS leaving a final volume of 10 μL. To each well 25 μL of a staining solution were added, which contains 1% BSA, 5 μL/ml Phalloidin (Alexa594 conjugate, Thermo Fisher Scientific, A12381), 25 μg/mL Concanavalin A (Alexa488 conjugate, Thermo Fisher Scientific, Cat. No. C11252), 5 μg/mL Hoechst 33342 (Sigma, Cat. No. B2261–25 mg), 1.5 μg/mL WGA-Alexa594 conjugate (Thermo Fisher Scientific, Cat. No. W11262) and 1.5 μM SYTO 14 solution (Thermo Fisher Scientific, Cat. No. S7576). The plate is incubated for 30 min (RT) in darkness and washed three times with 70 μL PBS. After the final washing step, the PBS was not aspirated. The plates were sealed and centrifuged for 1 min at 50g.
The generated images were processed with the CellProfiler package (https://cellprofiler.org/, version 3.0.0) on a computing cluster of the Max Planck Society to extract 1716 cell features per microscope site. The data was then further aggregated as medians per well (9 sites → 1 well), then over the three replicates.
From the total set of 1716 features, a subset of highly reproducible and robust features was determined using the procedure described by Woehrmann et al. in the following way: Two biological repeats of one plate containing reference compounds were analyzed. For every feature, its full profile over each whole plate was calculated.
The phenotypic profiles were compiled from the Z-scores of all individual cellular features, where the Z-score is a measure of how far away a data point is from a median value.

[1] = Variable-temperature 1H-NMR of amide protons; format: physicochemical
Protocol: The solvent exposure of peptide backbone NH groups can be studied using variable temperature ^1H-NMR experiments, where the change in chemical shift of the amide protons is observed upon increasing temperature. […] These experiments were performed for compounds SA-A1, SA-B1, SA-B2, and SA-B3 in both DMSO-d6, as a mimic of a polar environment, and CDCl3, as a mimic of the hydrophobic membrane environment (Figures S2–S9, and Tables and ). […] For SA-B3 the Ile-6 amide was also more exposed to solvent, but the change in Phe-2 shift was much smaller.
Variable-temperature nuclear magnetic resonance (VT-NMR) measurements were conducted using a Bruker Avance Neo 600 (av600) spectrometer equipped with a CP2.1 TMO 600 S3 cryoprobe. The ^1H NMR data was collected over a temperature range from 293.15 to 323.15 K, with temperature increments of 5 °C.

[2] = set-up: method as in Fairlie group; conditions: ref Fairlie group; cited from earlier work
[3] = CHI-IAM chromatography (immobilized artificial membrane); format: physicochemical; conditions: IAM.PC.DD2 column, ammonium acetate buffer pH 7.4
Excerpt: With all peptides in hand we first set out to estimate their passive membrane permeability using the immobilized artificial membrane (IAM) chromatography technique. , An IAM column is packed with a reverse phase like material modified with phospholipids to mimic a cellular membrane. After analysis of a compound its retention time is compared to a set of calibration compounds to yield a CHI-IAM value. A higher value indicates a stronger membrane interaction, which can be correlated to passive membrane permeability.
CHI-IAM chromatography was carried out on an Agilent 1200 Series LC (Agilent Technologies, USA) equipped with a 4.6 mm × 100 mm to 150 mm IAM.PC.DD2 column from Regis Technologies, Inc., eluting at 1.5 mL/min, eluting over a gradient of 0% – 85% MeCN with a 50 mM ammonium acetate buffer adjusted to pH 7.4 over 4.75 min.

[4] = set-up: method as in Nielsen et al.; conditions: D2O (10%)/DMSO-d6 (90%), value in brackets, ref Nielsen et al.; cited from earlier work
[5] = cited from earlier work
[6] = CDCl3, value in brackets, ref Bockus et al.
[7] = DMSO-d6, value in brackets, ref Nielsen et al.

With `CC[C@H](C)[C@@H]1NC(=O)[C@@H]2CCCN2C(=O)[C@H](Cc2ccccc2)NC(=O)[C@H](C)NC(=O)c2csc(n2)[C@H]([C@@H](C)CC)NC(=O)[C@@H]2CCCN2C1=O` [SA-A1, Sanguinamide A] (cyclo(AFPIP[Ile(ψThz)])) the “H-D exchange rate Ala-1” value (H-D exchange NMR) was 57 min, the “H-D exchange rate Ile-4” value (H-D exchange NMR) was over 240 min and the “H-D exchange rate Ile-6” value (H-D exchange NMR) was 341 min. The “H-D exchange rate Phe-2” value (H-D exchange NMR) was 48 min, the “Cell count at 10 μM” value (U2OS cells) was 103% and the “Induction at 10 μM” value (U2OS cells) was 1.4%. For the same compound, the “Cell count at 30 μM” value (U2OS cells) was 97%, the “Induction at 30 μM” value (U2OS cells) was 32.6% and the “Cell count at 50 μM” value (U2OS cells) was 88%. The “Induction at 50 μM” value (U2OS cells) was 29.7%, the “ΔδNH/ΔT Ala-1” value ([1]; CDCl3) was “–0.1 ppb/K” and the “ΔδNH/ΔT Ile-4” value ([1]; CDCl3) was “–3.5 ppb/K”. For the same compound, the “ΔδNH/ΔT Ile-6” value ([1]; CDCl3) was “–3.6 ppb/K”, the “ΔδNH/ΔT Phe-2” value ([1]; CDCl3) was “–10.2 ppb/K” and the “ΔδNH/ΔT Ala-1” value ([1]; DMSO-d6) was “–0.4 ppb/K”. The “ΔδNH/ΔT Ile-4” value ([1]; DMSO-d6) was “–1.7 ppb/K”, the “ΔδNH/ΔT Ile-6” value ([1]; DMSO-d6) was “–3.8 ppb/K” and the “ΔδNH/ΔT Phe-2” value ([1]; DMSO-d6) was “–4.2 ppb/K”. For the same compound, the “bioavailability (F)” value [2] was 7%, the CHI-IAM [3] was 39.71 ± 0.16 and the “H-D exchange rate Ala-1” value [4] was 188 min. The “H-D exchange rate Ile-4” value [4] was 6000 min, the “H-D exchange rate Ile-6” value [4] was 1500 min and the “H-D exchange rate Phe-2” value [4] was 380 min. For the same compound, the “ΔδNH/ΔT Ala-1” value [5, 6] was 0.1 ppb/K, the “ΔδNH/ΔT Ile-4” value [5, 6] was −3.1 ppb/K and the “ΔδNH/ΔT Ile-6” value [5, 6] was −3.1 ppb/K. For the same compound, the “ΔδNH/ΔT Phe-2” value [5, 6] was −9.1 ppb/K, the “ΔδNH/ΔT Ala-1” value [5, 7] was 0.4 ppb/K and the “ΔδNH/ΔT Ile-4” value [5, 7] was −1.5 ppb/K. The “ΔδNH/ΔT Ile-6” value [5, 7] was −4.0 ppb/K and the “ΔδNH/ΔT Phe-2” value [5, 7] was −4.2 ppb/K.

With `CC[C@H](C)[C@@H]1NC(=O)[C@@H]2CCCN2C(=O)[C@H]([C@@H](C)CC)NC(=O)[C@@H]2CCCN2C(=O)[C@H](Cc2ccccc2)NC(=O)[C@H](C)NC(=O)[C@H](CS)NC1=O` [SA-A3] (cyclo(AFPIPIC)) the “Cell count at 10 μM” value (U2OS cells) was 102%, the “Induction at 10 μM” value (U2OS cells) was 0.7% and the “Cell count at 30 μM” value (U2OS cells) was 102%. For the same compound, the “Induction at 30 μM” value (U2OS cells) was 1%, the “Cell count at 50 μM” value (U2OS cells) was 98% and the “Induction at 50 μM” value (U2OS cells) was 1%. The CHI-IAM [3] was 33.97 ± 0.13.

Source: article PMC12670408, “Backbone Alterations in Cyclic Peptides Influence Both Membrane Permeability and Biological Activity” (Journal of Medicinal Chemistry, 2025)
